Among the data in US20230060425A1, “FUSED BICYCLIC HETEROCYCLE DERIVATIVES AS PESTICIDES” (Bayer Aktiengesellschaft, priority 2019, published 2023) are efficacy, pest or weed control and Emax values, retold here.

Common to all, as to type: in vivo
One assay has as its system Rhipicephalus sanguineus. Briefly: Rhipicephalus sanguineus in vitro contact test with adult brown dog ticks. Conditions: application rate 5 μg/cm^2; after 48 h; ticks dead or moribund. The protocol:
Rhipicephalus sanguineus—In Vitro Contact Tests with Adult Brown Dog Ticks
For the coating of the test tubes, 9 mg of active compound are first dissolved in 1 ml of acetone p.a. and then diluted to the desired concentration with acetone p.a. 250 μl of the solution are distributed homogeneously on the inner walls and the base of a 25 ml glass tube by turning and rocking on an orbital shaker (rocking rotation at 30 rpm for 2 h). With 900 ppm of active compound solution and internal surface area 44.7 cm^2, given homogeneous distribution, an area-based dose of 5 μg/cm^2 is achieved.
After the solvent has evaporated off, the tubes are populated with 5-10 adult dog ticks (Rhipicephalus sanguineus), sealed with a perforated plastic lid and incubated in a horizontal position in the dark at room temperature and ambient humidity. After 48 h, efficacy is determined. To this end, the ticks are knocked to the base of the tube and incubated on a hotplate at 45-50° C. for not more than 5 min. Ticks which remain motionless on the base or move in such an uncoordinated manner that they are unable to deliberately avoid the heat by climbing upwards are considered to be dead or moribund.
An efficacy of 100% means that all the ticks were dead or moribund. 0% efficacy means that none of the ticks were harmed.

Assay [1] has as its system Myzus persicae. The experiment in a line: Myzus persicae oral test. Conditions: 120 h, application rate 4 ppm, after 5 days, read-out: efficacy. In short, it runs like this: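 Aphid feeding test: compound dissolved in acetone, diluted with water and mixed with IPL41 insect medium plus sugar, offered through parafilm to a mixed population of green peach aphids. Mortality scored after 5 days as % efficacy (100% = all aphids dead, 0% = none dead).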

In assay [2] the test system is Spodoptera frugiperda. The experiment in a line: Spodoptera frugiperda spray test. Conditions: foliar, 168 h, application rate 100 g/ha, maize leaf discs, after 7 days, read-out: efficacy. The protocol:
Spodoptera frugiperda—Spray Test
(§1) Solvent: • 78.0 parts by weight of acetone • 1.5 parts by weight of dimethylformamide
(§2) Emulsifier: alkylaryl polyglycol ether
To produce further test concentrations, the formulation is diluted with emulsifier-containing water.
After 7 days, the efficacy in % is determined. 100% means that all the caterpillars have been killed; 0% means that no caterpillar has been killed.

Assay [3] concerns Myzus persicae. The experiment in a line: Myzus persicae spray test (MYZUPE), comparative. Conditions: 120 h, 5 dat, read-out: % Efficacy. On the procedure:
Myzus persicae—Spray Test (MYZUPE)
as §1, §2
(§3) To produce a suitable active compound preparation, 1 part by weight of active compound is dissolved using the stated parts by weight of solvent and made up with water containing an emulsifier concentration of 1000 ppm until the desired concentration is attained. To produce further test concentrations, the formulation is diluted with emulsifier-containing water.
Discs of Chinese cabbage leaves (Brassica pekinensis) infested by all stages of the green peach aphid (Myzus persicae) are sprayed with an active compound preparation of the desired concentration.
After the desired period of time, the efficacy in % is determined. 100% means that all the aphids have been killed; 0% means that no aphids have been killed.

Assay [4] relates to Spodoptera frugiperda. Briefly: Spodoptera frugiperda spray test (SPODFR), comparative. Conditions: 168 h, 0.8 g of ai/ha, 7 dat, read-out: % Efficacy. The protocol: Spodoptera frugiperda—Spray Test (SPODFR)
as §1, §2, §3
Leaf discs of maize (Zea mays) are sprayed with an active compound formulation of the desired concentration and, after drying, populated with caterpillars of the armyworm (Spodoptera frugiperda).
After the desired period of time, the efficacy in % is determined. 100% means that all the caterpillars have been killed; 0% means that no caterpillar has been killed.

Assay [5] concerns Myzus persicae. The experiment in a line: Myzus persicae spray test on bell pepper plants (MYZUPE S). Conditions: 144 h, 6 dat, read-out: % Efficacy. On the procedure: Myzus persicae—Spray Test (MYZUPE S)
(§4) Solvent: 14 parts by weight of dimethylformamide
as §2
To produce a suitable active compound preparation, 1 part by weight of active compound is dissolved using the stated parts by weight of solvent and made up with water containing an emulsifier concentration of 1000 ppm until the desired concentration is attained. To produce further test concentrations, the formulation is diluted with emulsifier-containing water. If the addition of ammonium salts or/and penetrants is required, these are each added in a concentration of 1000 ppm to the formulation solution.
Bell pepper plants (Capsicum annuum) severely infested with the green peach aphid (Myzus persicae) are treated by spraying with the active compound formulation in the desired concentration.
After the desired time, the kill in % is determined. 100% means that all the animals have been killed; 0% means that no animals have been killed.

For the next assay, the system named is Aphis gossypii. Briefly: Aphis gossypii spray test (APHIGO S). Conditions: 144 h, 6 dat, read-out: % Efficacy.
Another assay has as its system Heliothis armigera. The experiment in a line: Heliothis armigera test (HELIAR S). Conditions: Helicoverpa armigera, 6 dai, read-out: % Efficacy. On the procedure:
Heliothis armigera Test (HELIAR S)
as §4
(§5) Emulsifier: 2 parts by weight of alkylaryl polyglycol ether
(§6) To produce a suitable active compound formulation, 1 part by weight of active compound is dissolved with the stated parts by weight of solvent and emulsifier and made up to the desired concentration with water. To produce further test concentrations, water is used for dilution. In the event that addition of ammonium salts or/and penetrants (rapeseed oil methyl ester) is required, these are each pipetted in at a concentration of 1000 ppm after the finished formulation solution has been diluted.
Cotton plants (Gossypium hirsutum) are sprayed with an active compound formulation of the desired concentration and, in each case after 12 and 19 days, populated with 5 caterpillars (L2) of the cotton bollworm (Heliothis armigera).
The kill is determined 6 days after the infection. 100% means that all the caterpillars have been killed and 0% means that none of the caterpillars have been killed.

The test system of a further assay is Phaedon cochleariae. Briefly: Phaedon cochleariae test on cabbage plants (PHAECO S). Conditions: 6 dai, read-out: % Efficacy. The protocol: Phaedon cochleariae Test (PHAECO S)
as §4, §5, §6
Cabbage plants (Brassica oleracea var. sabauda) are sprayed with an active compound formulation of the desired concentration and populated with 10 L2 larvae of the mustard beetle (Phaedon cochleariae).
After the desired time, the kill in % is determined. 100% means that all the larvae have been killed and 0% means that none of the larvae have been killed.

Like-named read-outs stand apart in the source and are kept apart here.

`CCS(=O)(=O)c1c(-c2nc3cc(C(F)(F)F)cnc3n2C)ncc2cc(Br)ccc12` [Example I-037, 7-Bromo-4-ethylsulfonyl-3-[3-methyl-6-(trifluoromethyl)imidazo[4,5-b]pyridin-2-yl]isoquinoline] returned an efficacy in the assay with Rhipicephalus sanguineus of 100%. In addition, the pest or weed control at 4 ppm in the assay on Myzus persicae [1] amounted to 100%. Further, the pest or weed control at 100 g/ha in the assay with Spodoptera frugiperda [2] amounted to 100%. Besides, the Emax at 4 g/ha with Myzus persicae [3] (4 g of ai/ha) amounted to 70%. In the assay on Myzus persicae [3] (20 g of ai/ha), the Emax at 20 g/ha turned out to be 90%. Also, the Emax at 0.8 g/ha in the assay with Spodoptera frugiperda [4] was 100%. Further, the Emax at 0.8 ppm in the assay on Myzus persicae [5] (0.8 ppm) worked out at 100%; in the assay on Phaedon cochleariae (288 h, 0.8 ppm, infection 12 dat), 100%. The Emax at 4 ppm was 100% in the assay on Myzus persicae [5] (4 ppm) and 65% in the assay with Aphis gossypii. The Emax at 0.16 ppm was 80% with Heliothis armigera (288 h, infection 12 dat); 70% with Heliothis armigera (456 h, infection 19 dat); 80% with Phaedon cochleariae (120 h, infection 5 dat); 60% in the assay with Phaedon cochleariae (288 h, infection 12 dat).
